Source: patent US9901573B2, “Compositions, methods, and kits for regulating energy metabolism” (NuSirt Sciences, Inc., priority 2012, dated 2018)

Experiments:
3T3-L1 adipocytes [1] = assay: Fatty acid oxidation (O2 consumption response to palmitate) in adipocytes; format: cell-based; conditions: FIG. 8, % change from control
Procedure: (§1) Cell Culture: C2C12 and 3T3-L1 preadipocytes (American Type Culture Collection) were plated at a density of 8000 cells/cm^2 (10 cm^2 dish) and grown in Dulbecco's modified eagle's medium (DMEM) containing 10% fetal bovine serum (FBS), and antibiotics (growth medium) at 37° C. in 5% CO2. Confluent 3T3-L1 preadipocytes were induced to differentiate with a standard differentiation medium consisting of DMEM medium supplemented with 10% FBS, 250 nM dexamethasone, 0.5 mM 3-Isobutyl-1-methylxanthine (IBMX) and 1% penicillin-streptomycin. Preadipocytes were maintained in this differentiation medium for 3 days and subsequently cultured in growth medium. Cultures were re-fed every 2-3 days to allow >90% cells to reach fully differentiation before conducting chemical treatment. […]
Fatty acid oxidation: Cellular oxygen consumption was measured using a Seahorse Bioscience XF24 analyzer (Seahorse Bioscience, Billerica, Mass.) in 24-well plates at 37° C., as described by Feige et al (1) with slight modifications. […] Data for each sample were normalized to the pre-palmitate injection baseline for that sample and expressed as % change from that baseline. […] The area under of the curve of O2 consumption change from baseline for each sample was then calculated and used for subsequent analysis.

3T3-L1 adipocytes [2] = assay: Glucose utilization (extracellular acidification) in adipocytes; format: cell-based; conditions: FIG. 10
Procedure: as §1
Glucose Utilization: In the absence of a fatty acid source and oxidative metabolism, glycolysis and subsequent lactate production results in extracellular acidification, which was also measured using a Seahorse Bioscience XF24 analyzer. […] Data for each sample were normalized to the pre-glucose injection baseline for that sample and expressed as % change from that baseline. The area under of the curve of extracellular acidification change from baseline for each sample was the calculated and used for subsequent analysis.

[3] = Circulating level achieved by dietary dosing; format: in vivo, human
From the text: In some embodiments, the dosing of leucine, any metabolites of leucine, and/or vitamin B6 can be designed to achieve a specified physiological concentration or circulating level of leucine, metabolites of leucine and/or vitamin B6. The physiological concentration can be a circulating level as measured in the blood stream of a subject. The subject can be a human or an animal. A selected dosing can be altered based on the characteristics of the subject, such as weight, rate of energy metabolism, genetics, ethnicity, height, or any other characteristic. The amount of leucine in a unit dose can be such that the circulating level of leucine in a subject is about or greater than about 0.25 mM, 0.5 mM, 0.75 mM, or 1 mM. A dosing of about 1,125 mg leucine can achieve a circulating level of leucine in a subject that is about 0.5 mM. A dosing of about 300 mg leucine can achieve a circulating level of leucine in a subject that is about 0.25 mM. A dosing of about 15 mg of vitamin B6 can achieve a circulating level of vitamin B6 that is about 100 nM. A dosing of about 7.5 mg of vitamin B6 can achieve a circulating level of vitamin B6 that is about 50 nM. The amount of vitamin B6 in a unit dose can be such that the circulating level of vitamin B6 in a subject is about or greater than about 10, 25, 50, 100, 150, or 200 nM. […]

## CC(C)C[C@H](N)C(=O)O [Leucine, leucine]
3T3-L1 adipocytes [1]
  increase in fatty acid oxidation: 181%
3T3-L1 adipocytes [2]
  increase in glucose utilization: no independent significant effect
[3]; dosing of about 300 mg leucine
  circulating level of leucine: about 0.25 mM
[3]; dosing of about 1,125 mg leucine
  circulating level of leucine: about 0.5 mM
